Laboratory results taken from PMC10300829 (2023).

How the values were obtained:
[1] = system: C9-24mer (DNA, G4) GGGGCCGGGGCCGGGGCCGGGGCC; experiment: CD melting; settings: K+ 5 mM; 30 mM Tris-HCl pH 7.4; 2 µM DNA, 8 µM compound (4 equivalents)
[2] = system: C9-RNA (RNA, G4) GGGGCCGGGGCCGGGGCCGGGGCC; experiment: CD melting; settings: K+ 5 mM; 30 mM Tris-HCl pH 7.4; 5 µM RNA, 2 equivalents (10 µM); Tm 76 to 93 °C
[3] = system: Dup I + II (DNA, duplex) GGGCATAGTGCGTGGCGTTTAGC/GCTAAACGCCACGCACTATGCCC; experiment: CD and native PAGE; settings: K+ 5 mM; 30 mM Tris-HCl pH 7.4; co-annealed; PAGE with 8 µM Fangchinoline, 2 µM each strand
[4] = system: C9-24mer G + C (C9-24mer with C9-24mer-C) (DNA, other) GGGGCCGGGGCCGGGGCCGGGGCC/GGCCCCGGCCCCGGCCCCGGCCCC; experiment: CD and native PAGE; settings: K+ 5 mM; 30 mM Tris-HCl pH 7.4; co-annealed; PAGE with 8 µM Fangchinoline; parallel GQ induced
[5] = system: C9-48mer (DNA, G4) GGGGCCGGGGCCGGGGCCGGGGCCGGGGCCGGGGCCGGGGCCGGGGCC; experiment: CD melting at 265 nm; settings: K+ 5 mM; 30 mM Tris-HCl pH 7.4; 1 µM DNA; Tm 90 °C at 1 equivalent, undetectable above 4 equivalents
[6] = system: FRET I + II (DNA, G4) GGGGCCGGGGCCGGGGCCGGGGCCAGAGGTAAAAGGATAATGGCCACGGTGCGGACGGC/GCCGTCCGCACCGTGGCCATTATCCTTTTACCTCT; experiment: FRET (Cy3/Cy5) and CD; settings: K+ 100 mM; 30 mM Tris-HCl pH 7.4; 2 µM DNA, 8-24 µM compound; FRET efficiency falls to 0.46
[7] = system: C9-24mer (DNA, G4) GGGGCCGGGGCCGGGGCCGGGGCC; experiment: CD titration at 265 nm, Hill fit; settings: K+ 5 mM; 30 mM Tris-HCl pH 7.4; co-annealed; 2 µM DNA; per GQ unit; ligand induces parallel GQ; apparent
[8] = system: C9-48mer (DNA, G4) GGGGCCGGGGCCGGGGCCGGGGCCGGGGCCGGGGCCGGGGCCGGGGCC; experiment: CD titration at 265 nm, Hill fit; settings: K+ 5 mM; 30 mM Tris-HCl pH 7.4; co-annealed; 1 µM DNA; per GQ unit; ligand induces parallel GQ; apparent

`COc1ccc2cc1Oc1ccc(cc1)C[C@H]1c3cc(c(OC)cc3CCN1C)Oc1c(O)c(OC)cc3c1[C@H](C2)N(C)CC3` was tested, and the ΔTm [1] was 6 °C, the ΔTm [2] was 17 °C and the binding [3] was “no”. For the same molecule, the binding [4] was “yes”, the binding [5] was “yes” and the binding [6] was “yes”. For the same molecule, the Kb [7] was “(4.0 ± 0.3) × 10^5 M^-1” and the Kb [8] was “(6.6 ± 0.2) × 10^5 M^-1”.
